Where two headings read alike, the source gives them in different places. Numbered stars: 1 amine (or outer) side, 2 acyl side, 3 side chain; on linkers, the order of the positions; unused ones are H or OH. Square brackets hold non-standard residues; d marks the D form. Side chains are listed from the residue outwards. Peptide text beside a SMILES is read from it. * marks the point of attachment. C20 diacid = O=C(O)CCCCCCCCCCCCCCCCCCC(=O)*; γGlu = O=C(O)[C@H](CCC(=O)[*:2])N[*:1]; AEEA = NCCOCCOCC(=O)O; Aib = CC(C)(N)C(=O)O
Key:
[1] = Turbidity of crude library peptides (absorbance at 600 nm); format: physicochemical; details: Physical stability of peptides
Summary of the method: (§1)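 Turbidity is the absorbance at 600 nm, taken before heating. Fibril signal is the mean ThT emission at 480 nm (450 nm excitation), read every 10 min over 72 h at 40° C with 700 rpm shaking between reads. Peptides at 267 μM, pH 4.0 acetate or pH 7.0 phosphate buffer (50 mM), 4 μM ThT final.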

GLP1R = GLP1R (Homo sapiens, UniProt P43220); assay: hGLP1R potency, cAMP accumulation in CHO-K1 cells stably overexpressing hGLP1R; format: cell-based; parameters: host or cells: CHO-K1; details: for Selectivity: SCTR EC50/GLP1R EC50 ratio; for EC50: cAMP accumulation; for SCTR EC50/GLP1R EC50 ratio: cAMP accumulation in CHO-K1 cells
Sequence of GLP1R (P43220 24-463): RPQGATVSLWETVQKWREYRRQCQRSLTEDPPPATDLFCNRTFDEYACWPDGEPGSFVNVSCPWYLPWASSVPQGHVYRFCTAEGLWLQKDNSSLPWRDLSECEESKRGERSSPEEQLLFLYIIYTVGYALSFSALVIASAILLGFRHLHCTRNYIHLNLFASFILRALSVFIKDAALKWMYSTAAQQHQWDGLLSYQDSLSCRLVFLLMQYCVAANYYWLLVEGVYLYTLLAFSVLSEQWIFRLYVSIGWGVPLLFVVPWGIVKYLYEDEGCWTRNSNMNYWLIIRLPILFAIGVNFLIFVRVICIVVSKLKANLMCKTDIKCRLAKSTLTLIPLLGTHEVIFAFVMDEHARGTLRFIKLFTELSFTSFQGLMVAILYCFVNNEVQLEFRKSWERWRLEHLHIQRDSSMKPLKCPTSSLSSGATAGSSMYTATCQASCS
Summary of the method: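 EC50 derives from variable-slope nonlinear regression of cAMP HTRF signal, with purified peptides tested as 11 three-fold dilutions in duplicate. Assay: hGLP1R-overexpressing CHO-K1 cells, 0.5 mM IBMX, 0.05% casein in DPBS, 30 min room-temperature stimulation, GLP-1(7-36) as reference agonist.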

SCTR = SCTR (Homo sapiens, UniProt P47872); assay: hSCTR potency, cAMP accumulation in CHO-K1 cells stably overexpressing hSCTR; format: cell-based; parameters: alternatively Euroscreen ES-712-AF; FAST-0161L; host or cells: CHO-K1; details: cAMP accumulation
Sequence of SCTR (P47872 23-440): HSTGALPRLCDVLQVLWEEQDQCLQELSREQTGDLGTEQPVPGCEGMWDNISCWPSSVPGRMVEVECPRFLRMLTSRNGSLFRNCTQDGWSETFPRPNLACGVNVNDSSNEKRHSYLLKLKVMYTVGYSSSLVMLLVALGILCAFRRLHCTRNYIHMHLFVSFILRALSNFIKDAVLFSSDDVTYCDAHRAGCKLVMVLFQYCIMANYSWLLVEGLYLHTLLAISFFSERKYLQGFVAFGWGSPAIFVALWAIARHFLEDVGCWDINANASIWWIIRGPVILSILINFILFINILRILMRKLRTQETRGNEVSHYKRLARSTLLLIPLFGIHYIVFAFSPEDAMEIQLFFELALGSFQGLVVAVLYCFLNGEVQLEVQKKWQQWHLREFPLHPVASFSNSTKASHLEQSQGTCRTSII
Summary of the method: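 EC50 derived from variable-slope nonlinear regression on 11-point, 3-fold series run in duplicate (crude peptides: 5 points, 10-fold, n=1). Compound stimulation lasted 30 min at room temperature in casein/IBMX-containing DPBS (0.05%, 0.5 mM), 2000 cells/well; cAMP detected by time-resolved FRET after one hour.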

[2] = Fibril formation of crude library peptides (Thioflavin T); format: physicochemical; parameters: key: average ThT fluorescence emission at 480 nm (ex 450 nm), raw units; details: Physical stability of peptides
Summary of the method: as §1

[3] = CHO-K1 cells overexpressing hGLP1R, read-out: pEC50 hGLPR1 (converted)
[4] = CHO-K1 cells overexpressing hSCTR, read-out: pEC50 hSCTR (converted)

| Turbidity (pH 7) [1] | Selectivity (GLP1R) | EC50 (GLP1R; [3]) | EC50 (SCTR; [4]) | Fibril formation [2] | EC50 (GLP1R; CHO-K1 cells overexpressing hGLP1R, read-out: hGLP1R pEC50 (converted)) | SCTR EC50/GLP1R EC50 ratio (GLP1R; selectivity for hGLP1R over hSCTR) | EC50 (SCTR; CHO-K1 cells overexpressing hSCTR, read-out: hSCTR pEC50 (converted)) | EC50 (GLP1R; CHO-K1 cells stably overexpressing hGLP1R, read-out: hGLP1R potency (pEC50) (converted)) | SCTR EC50/GLP1R EC50 ratio (GLP1R; selectivity ratio, hSCTR vs hGLP1R) | EC50 (SCTR; CHO-K1 cells stably overexpressing hSCTR, read-out: hSCTR potency (pEC50) (converted)) | Structure (SMILES) |
| --- | --- | --- | --- | --- | --- | --- | --- | --- | --- | --- | --- |
| 0.08 | 5236 | 0.0251 nM | 126 nM | 16290 | – | – | – | – | – | – | CC(C)C[C@H](NC(=O)[C@H](Cc1ccccc1)NC(=O)[C@H](CCCNC(=N)N)NC(=O)[C@H](CCC(N)=O)NC(=O)[C@@H](NC(=O)[C@H](C)NC(=O)[C@H](C)NC(=O)C(C)(C)NC(=O)[C@H](CCC(=O)O)NC(=O)[C@H](CCCCNC(=O)COCCOCCNC(=O)COCCOCCNC(=O)CC[C@H](NC(=O)CCCCCCCCCCCCCCCCCCC(=O)O)C(=O)O)NC(=O)[C@H](CC(C)C)NC(=O)[C@H](Cc1ccc(O)cc1)NC(=O)[C@H](CO)NC(=O)[C@@H](NC(=O)[C@H](CC(=O)O)NC(=O)[C@H](CO)NC(=O)[C@@H](NC(=O)[C@H](Cc1ccccc1)NC(=O)[C@@H](NC(=O)CNC(=O)[C@H](CCC(=O)O)NC(=O)C(C)(C)NC(=O)[C@@H](N)Cc1c[nH]cn1)[C@@H](C)O)[C@@H](C)O)C(C)C)[C@@H](C)O)C(=O)N[C@@H](CCC(=O)O)C(=O)N[C@@H](Cc1c[nH]cn1)C(=O)N[C@@H](CC(C)C)C(=O)N[C@H](C(N)=O)C(C)C [compound 48] (H-H[Aib]EGTFTSDVSYLK([AEEA-AEEA-γGlu-C20 diacid])E[Aib]AATQRFLEHLV-NH2) |
| 0.08 | – | – | – | 4038 | 0.00631 nM | 1693 | 10 nM | – | – | – | CC(C)C[C@H](NC(=O)[C@H](Cc1ccccc1)NC(=O)[C@H](CCCNC(=N)N)NC(=O)[C@H](CCC(N)=O)NC(=O)[C@H](CC(C)C)NC(=O)C(C)(C)NC(=O)[C@H](C)NC(=O)[C@H](CCC(=O)O)NC(=O)[C@H](CCC(=O)O)NC(=O)[C@H](CCCCNC(=O)COCCOCCNC(=O)COCCOCCNC(=O)CC[C@H](NC(=O)CCCCCCCCCCCCCCCCCCC(=O)O)C(=O)O)NC(=O)[C@H](CC(C)C)NC(=O)[C@@H](NC(=O)[C@H](CO)NC(=O)[C@@H](NC(=O)[C@H](CC(=O)O)NC(=O)[C@H](CO)NC(=O)[C@@H](NC(=O)[C@H](Cc1ccccc1)NC(=O)[C@@H](NC(=O)CNC(=O)[C@H](CCC(=O)O)NC(=O)C(C)(C)NC(=O)[C@@H](N)Cc1c[nH]cn1)[C@@H](C)O)[C@@H](C)O)C(C)C)[C@@H](C)O)C(=O)N[C@@H](CCC(=O)O)C(=O)N[C@@H](Cc1c[nH]cn1)C(=O)N[C@@H](CC(C)C)C(=O)N[C@H](C(N)=O)C(C)C [compound 165] (H-H[Aib]EGTFTSDVSTLK([AEEA-AEEA-γGlu-C20 diacid])EEA[Aib]LQRFLEHLV-NH2) |
| 0.21 | – | – | – | 7498 | – | – | – | 0.0158 nM | 492 | 7.94 nM | CC[C@H](C)[C@H](NC(=O)[C@H](Cc1ccccc1)NC(=O)[C@H](CCCNC(=N)N)NC(=O)[C@H](CCC(N)=O)NC(=O)[C@H](CC(C)C)NC(=O)[C@H](C)NC(=O)[C@H](C)NC(=O)CNC(=O)[C@H](CCC(=O)O)NC(=O)[C@H](CC(C)C)NC(=O)[C@H](CC(C)C)NC(=O)C(C)(C)NC(=O)[C@H](CO)NC(=O)[C@H](Cc1ccc(O)cc1)NC(=O)[C@H](CC(=O)O)NC(=O)[C@H](CO)NC(=O)[C@@H](NC(=O)[C@H](Cc1ccccc1)NC(=O)[C@@H](NC(=O)CNC(=O)[C@H](CCC(=O)O)NC(=O)C(C)(C)NC(=O)[C@@H](N)Cc1c[nH]cn1)[C@@H](C)O)[C@@H](C)O)C(=O)N[C@@H](CCC(N)=O)C(=O)N[C@@H](Cc1c[nH]c2ccccc12)C(=O)N[C@@H](CC(C)C)C(=O)N[C@H](C(N)=O)C(C)C [compound 197] (H-H[Aib]EGTFTSDYS[Aib]LLEGAALQRFIQWLV-NH2) |
| 0.08 | 43142 | 0.0158 nM | 794 nM | 8261 | – | – | – | – | – | – | CC(C)C[C@H](NC(=O)[C@H](Cc1ccccc1)NC(=O)[C@H](CCCNC(=N)N)NC(=O)[C@H](CCC(N)=O)NC(=O)C(C)(C)NC(=O)[C@H](C)NC(=O)[C@H](C)NC(=O)[C@H](CCC(=O)O)NC(=O)[C@H](CCC(=O)O)NC(=O)[C@H](CCCCNC(=O)COCCOCCNC(=O)COCCOCCNC(=O)CC[C@H](NC(=O)CCCCCCCCCCCCCCCCCCC(=O)O)C(=O)O)NC(=O)[C@H](CC(C)C)NC(=O)[C@@H](NC(=O)[C@H](CO)NC(=O)[C@@H](NC(=O)[C@H](CC(=O)O)NC(=O)[C@H](CO)NC(=O)[C@@H](NC(=O)[C@H](Cc1ccccc1)NC(=O)[C@@H](NC(=O)CNC(=O)[C@H](CCC(=O)O)NC(=O)C(C)(C)NC(=O)[C@@H](N)Cc1c[nH]cn1)[C@@H](C)O)[C@@H](C)O)C(C)C)C(C)C)C(=O)N[C@@H](CCC(=O)O)C(=O)N[C@@H](Cc1c[nH]cn1)C(=O)N[C@@H](CC(C)C)C(=O)N[C@H](C(N)=O)C(C)C [compound 35] (H-H[Aib]EGTFTSDVSVLK([AEEA-AEEA-γGlu-C20 diacid])EEAA[Aib]QRFLEHLV-NH2) |
| 0.08 | 10637 | 0.0251 nM | 251 nM | 10330 | – | – | – | – | – | – | CC(C)C[C@H](NC(=O)[C@H](Cc1ccccc1)NC(=O)[C@H](CCCNC(=N)N)NC(=O)[C@H](CCC(N)=O)NC(=O)[C@H](CO)NC(=O)[C@H](C)NC(=O)[C@H](C)NC(=O)[C@H](CCC(=O)O)NC(=O)[C@H](CCC(=O)O)NC(=O)[C@H](CCCCNC(=O)COCCOCCNC(=O)COCCOCCNC(=O)CC[C@H](NC(=O)CCCCCCCCCCCCCCCCCCC(=O)O)C(=O)O)NC(=O)[C@H](CC(C)C)NC(=O)[C@H](CCCNC(=N)N)NC(=O)[C@H](CO)NC(=O)[C@@H](NC(=O)[C@H](CC(=O)O)NC(=O)[C@H](CO)NC(=O)[C@@H](NC(=O)[C@H](Cc1ccccc1)NC(=O)[C@@H](NC(=O)CNC(=O)[C@H](CCC(=O)O)NC(=O)C(C)(C)NC(=O)[C@@H](N)Cc1c[nH]cn1)[C@@H](C)O)[C@@H](C)O)C(C)C)C(=O)N[C@@H](CCC(=O)O)C(=O)N[C@@H](Cc1c[nH]cn1)C(=O)N[C@@H](CC(C)C)C(=O)N[C@H](C(N)=O)C(C)C [compound 17] (H-H[Aib]EGTFTSDVSRLK([AEEA-AEEA-γGlu-C20 diacid])EEAASQRFLEHLV-NH2) |
| 0.09 | 11143 | 0.0316 nM | 316 nM | 9625 | – | – | – | – | – | – | CC(C)C[C@H](NC(=O)[C@H](CCC(=O)O)NC(=O)[C@H](CCCCNC(=O)COCCOCCNC(=O)COCCOCCNC(=O)CC[C@H](NC(=O)CCCCCCCCCCCCCCCCCCC(=O)O)C(=O)O)NC(=O)[C@H](CC(C)C)NC(=O)[C@H](CCC(=O)O)NC(=O)[C@H](CO)NC(=O)[C@@H](NC(=O)[C@H](CC(=O)O)NC(=O)[C@H](CO)NC(=O)[C@@H](NC(=O)[C@H](Cc1ccccc1)NC(=O)[C@@H](NC(=O)CNC(=O)[C@H](CCC(=O)O)NC(=O)C(C)(C)NC(=O)[C@@H](N)Cc1c[nH]cn1)[C@@H](C)O)[C@@H](C)O)C(C)C)C(=O)N[C@@H](C)C(=O)N[C@@H](C)C(=O)N[C@@H](CCC(=O)O)C(=O)N[C@@H](CCC(N)=O)C(=O)N[C@@H](CCCNC(=N)N)C(=O)N[C@@H](Cc1ccccc1)C(=O)N[C@@H](CC(C)C)C(=O)N[C@@H](CCC(=O)O)C(=O)N[C@@H](Cc1c[nH]cn1)C(=O)N[C@@H](CC(C)C)C(=O)N[C@H](C(N)=O)C(C)C [compound 36] (H-H[Aib]EGTFTSDVSELK([AEEA-AEEA-γGlu-C20 diacid])ELAAEQRFLEHLV-NH2) |
| 0.08 | 209363 | 0.0158 nM | 3160 nM | 6253 | – | – | – | – | – | – | CC(C)C[C@H](NC(=O)[C@H](Cc1ccccc1)NC(=O)[C@H](CCCNC(=N)N)NC(=O)[C@H](CCC(N)=O)NC(=O)[C@H](CCC(=O)O)NC(=O)[C@H](C)NC(=O)[C@H](C)NC(=O)[C@@H](NC(=O)[C@H](CCC(=O)O)NC(=O)[C@H](CCCCNC(=O)COCCOCCNC(=O)COCCOCCNC(=O)CC[C@H](NC(=O)CCCCCCCCCCCCCCCCCCC(=O)O)C(=O)O)NC(=O)[C@H](CC(C)C)NC(=O)[C@@H](NC(=O)[C@H](CO)NC(=O)[C@@H](NC(=O)[C@H](CC(=O)O)NC(=O)[C@H](CO)NC(=O)[C@@H](NC(=O)[C@H](Cc1ccccc1)NC(=O)[C@@H](NC(=O)CNC(=O)[C@H](CCC(=O)O)NC(=O)C(C)(C)NC(=O)[C@@H](N)Cc1c[nH]cn1)[C@@H](C)O)[C@@H](C)O)C(C)C)[C@@H](C)O)[C@@H](C)O)C(=O)N[C@@H](CCC(=O)O)C(=O)N[C@@H](Cc1c[nH]cn1)C(=O)N[C@@H](CC(C)C)C(=O)N[C@H](C(N)=O)C(C)C [compound 42] (H-H[Aib]EGTFTSDVSTLK([AEEA-AEEA-γGlu-C20 diacid])ETAAEQRFLEHLV-NH2) |

Source: patent US20260201008A1, “SECRETIN-DERIVED GLP1R SELECTIVE AGONISTS” (GUBRA A/S, priority 2023, published 2026)
